Data as given in the NIST ThermoML archive (doi:10.1021/acs.jced.8b01008).

Settings: 100 kPa, Liquid, Falling or rolling sphere viscometry

O [water]
Settings	viscosity [mPa·s]
288.15 K	1.122
293.15 K	0.99
298.15 K	0.882
303.15 K	0.793
308.15 K	0.719
313.15 K	0.656
318.15 K	0.602
